Laboratory results published in ChEMBL document CHEMBL1201862, “PubChem BioAssay data set” (2004).
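Interpolation was linear, between the two tested concentrations surrounding the appropriate level; five concentrations were tested over 48 hours in 96-well plates. GI50 = concentration required for 50% inhibition of growth.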 Activity calls are given as the source filed them. Rule as the data show it: active = GI50 up to about 1.1 µM and inactive = higher.

What was measured:
Assay in all cases: NCI anticancer screen, dose series, 48 h
786-0 = system: 786-0
A498 = system: A498
A549 = system: A549
ACHN = system: ACHN
BT-549 = system: BT-549
CAKI-1 = system: CAKI-1
COLO 205 = system: COLO 205
DU-145 = system: DU-145
EKVX = system: EKVX
HCT-116 = system: HCT-116
HCT-15 = system: HCT-15
HOP-62 = system: HOP-62
HOP-92 = system: HOP-92
HT-29 = system: HT-29
Hs-578T = system: Hs-578T
IGROV-1 = system: IGROV-1
K562 = system: K562
KM12 = system: KM12
LOX IMVI = system: LOX IMVI
M14 = system: M14
MCF7 = system: MCF7
MDA-MB-231 = system: MDA-MB-231
MDA-MB-435 = system: MDA-MB-435
MDA-N = system: MDA-N
MOLT-4 = system: MOLT-4
Malme-3M = system: Malme-3M
NCI-H226 = system: NCI-H226
NCI-H23 = system: NCI-H23
NCI-H522 = system: NCI-H522
NCI/ADR-RES = system: NCI/ADR-RES
OVCAR-3 = system: OVCAR-3
OVCAR-4 = system: OVCAR-4
OVCAR-5 = system: OVCAR-5
OVCAR-8 = system: OVCAR-8
PC-3 = system: PC-3
RPMI-8226 = system: RPMI-8226
RXF 393 = system: RXF 393
SF-268 = system: SF-268
SF-295 = system: SF-295
SK-MEL-28 = system: SK-MEL-28
SK-MEL-2 = system: SK-MEL-2
SK-MEL-5 = system: SK-MEL-5
SK-OV-3 = system: SK-OV-3
SN12C = system: SN12C
SNB-19 = system: SNB-19
SNB-75 = system: SNB-75
SR = system: SR
SW-620 = system: SW-620
T47D = system: T47D
TK-10 = system: TK-10
U-251 = system: U-251
UACC-257 = system: UACC-257
UACC-62 = system: UACC-62
UO-31 = system: UO-31
CCRF-CEM = system: CCRF-CEM
HCC 2998 = system: HCC 2998
HL-60 = system: HL-60
NCI-H460 = system: NCI-H460
SF-539 = system: SF-539

With `O=C1c2ccccc2C(=O)c2c(Nc3cc4c5c(ccc6c7ccc8c9c(cc(Nc%10cccc%11c%10C(=O)c%10ccccc%10C%11=O)c(c3c56)c97)-c3ccccc3C8=O)C(=O)c3ccccc3-4)cccc21` the GI50 (786-0) was 29.2 µM (inactive), the GI50 (A498) was 26.1 µM (inactive) and the GI50 (A549) was 61.7 µM (inactive). For the same molecule, the GI50 (ACHN) was 36.1 µM (inactive), the GI50 (BT-549) was 46.3 µM (inactive) and the GI50 (CAKI-1) was 67 µM (inactive). The GI50 (COLO 205) was > 100 µM (inactive), the GI50 (DU-145) was > 100 µM (inactive) and the GI50 (EKVX) was 40.6 µM (inactive). The GI50 (HCT-116) was 88.9 µM (inactive), the GI50 (HCT-15) was > 100 µM and the GI50 (HOP-62) was 17 µM (inactive). For the same molecule, the GI50 (HOP-92) was 41.8 µM (inactive), the GI50 (HT-29) was > 100 µM (inactive) and the GI50 (Hs-578T) was 18.1 µM (inactive). The GI50 (IGROV-1) was 24.6 µM (inactive), the GI50 (K562) was 75 µM (inactive) and the GI50 (KM12) was > 100 µM (inactive). For the same molecule, the GI50 (LOX IMVI) was 72.1 µM (inactive), the GI50 (M14) was > 100 µM (inactive) and the GI50 (MCF7) was 83.2 µM (inactive). For the same molecule, the GI50 (MDA-MB-231) was 31.6 µM (inactive), the GI50 (MDA-MB-435) was 41.1 µM (inactive) and the GI50 (MDA-N) was > 100 µM (inactive). The GI50 (MOLT-4) was 37.8 µM (inactive), the GI50 (Malme-3M) was > 100 µM (inactive) and the GI50 (NCI-H226) was > 100 µM (inactive). For the same molecule, the GI50 (NCI-H23) was > 100 µM (inactive), the GI50 (NCI-H522) was 71 µM (inactive) and the GI50 (NCI/ADR-RES) was 49.1 µM (inactive). For the same molecule, the GI50 (OVCAR-3) was 41.2 µM (inactive), the GI50 (OVCAR-4) was 65.8 µM (inactive) and the GI50 (OVCAR-5) was > 100 µM (inactive). The GI50 (OVCAR-8) was 25 µM (inactive), the GI50 (PC-3) was 70.6 µM (inactive) and the GI50 (RPMI-8226) was > 100 µM (inactive). For the same molecule, the GI50 (RXF 393) was 60.3 µM (inactive), the GI50 (SF-268) was 18.8 µM (inactive) and the GI50 (SF-295) was 44 µM (inactive). For the same molecule, the GI50 (SK-MEL-28) was > 100 µM (inactive), the GI50 (SK-MEL-2) was 53.6 µM (inactive) and the GI50 (SK-MEL-5) was > 100 µM (inactive). For the same molecule, the GI50 (SK-OV-3) was 16.6 µM (inactive), the GI50 (SN12C) was > 100 µM (inactive) and the GI50 (SNB-19) was 29.9 µM (inactive). For the same molecule, the GI50 (SNB-75) was 17.6 µM (inactive), the GI50 (SR) was 43.7 µM (inactive) and the GI50 (SW-620) was > 100 µM (inactive). The GI50 (T47D) was > 100 µM (inactive), the GI50 (TK-10) was 29.9 µM (inactive) and the GI50 (U-251) was 21.1 µM (inactive). For the same molecule, the GI50 (UACC-257) was > 100 µM (inactive), the GI50 (UACC-62) was > 100 µM (inactive) and the GI50 (UO-31) was 84.5 µM (inactive).
`COC(=O)C1=NN2c3ccccc3CN([C@@H](C)c3ccccc3)C(=O)[C@H]2[C@@H]1C` was tested, and the GI50 (786-0) was 57.7 µM (inactive), the GI50 (A498) was > 100 µM (inactive) and the GI50 (A549) was 29.4 µM (inactive). For the same molecule, the GI50 (ACHN) was 39 µM (inactive), the GI50 (BT-549) was 24.7 µM (inactive) and the GI50 (CAKI-1) was 33.7 µM (inactive). The GI50 (CCRF-CEM) was 0.743 µM (active), the GI50 (COLO 205) was 18.1 µM (inactive) and the GI50 (DU-145) was 47.5 µM (inactive). For the same molecule, the GI50 (EKVX) was 27.7 µM (inactive), the GI50 (HCC 2998) was 24.7 µM (inactive) and the GI50 (HCT-116) was 33.7 µM (inactive). For the same molecule, the GI50 (HCT-15) was 43.9 µM, the GI50 (HL-60) was 0.769 µM (active) and the GI50 (HOP-62) was 52.1 µM (inactive). For the same molecule, the GI50 (HOP-92) was 44.7 µM (inactive), the GI50 (HT-29) was 31.8 µM (inactive) and the GI50 (Hs-578T) was 67.1 µM (inactive). For the same molecule, the GI50 (K562) was 7.13 µM (inactive), the GI50 (KM12) was 31 µM (inactive) and the GI50 (LOX IMVI) was 35.2 µM (inactive). For the same molecule, the GI50 (M14) was 35.2 µM (inactive), the GI50 (MCF7) was 36.3 µM (inactive) and the GI50 (MDA-MB-231) was 83 µM (inactive). The GI50 (MDA-MB-435) was 32.1 µM (inactive), the GI50 (MDA-N) was 34.5 µM (inactive) and the GI50 (MOLT-4) was 17.3 µM (inactive). The GI50 (Malme-3M) was 38.4 µM (inactive), the GI50 (NCI-H226) was 25.9 µM (inactive) and the GI50 (NCI-H23) was 33.1 µM (inactive). The GI50 (NCI-H460) was 38.1 µM (inactive), the GI50 (NCI-H522) was 21.1 µM (inactive) and the GI50 (NCI/ADR-RES) was 26.1 µM (inactive). The GI50 (OVCAR-3) was 27 µM (inactive), the GI50 (OVCAR-4) was 28.9 µM (inactive) and the GI50 (OVCAR-5) was 37.6 µM (inactive). The GI50 (OVCAR-8) was 34.7 µM (inactive), the GI50 (PC-3) was 23.8 µM (inactive) and the GI50 (RXF 393) was 40.3 µM (inactive). The GI50 (SF-268) was 40.3 µM (inactive), the GI50 (SF-295) was 35 µM (inactive) and the GI50 (SF-539) was 40.5 µM (inactive). For the same molecule, the GI50 (SK-MEL-28) was 49.2 µM (inactive), the GI50 (SK-MEL-2) was 35.9 µM (inactive) and the GI50 (SK-MEL-5) was 12.6 µM (inactive). For the same molecule, the GI50 (SK-OV-3) was 62.5 µM (inactive), the GI50 (SN12C) was 70.6 µM (inactive) and the GI50 (SNB-19) was 74.6 µM (inactive). The GI50 (SNB-75) was 27.2 µM (inactive), the GI50 (SR) was 25.5 µM (inactive) and the GI50 (SW-620) was 43.1 µM (inactive). For the same molecule, the GI50 (T47D) was 17 µM (inactive), the GI50 (TK-10) was 50.1 µM (inactive) and the GI50 (U-251) was 42 µM (inactive). The GI50 (UACC-257) was 26.9 µM (inactive), the GI50 (UACC-62) was 40.6 µM (inactive) and the GI50 (UO-31) was 56 µM (inactive).
